Patent publication US12383585B2, “Methods of treatment of infections using bacteria” (Decoy Biosystems, Inc., priority 2018, dated 2025)

Columns and labels:
[1] = tested on: AAV/HBV (human HBV genome, genotype D); assay: AAV/HBV mouse model, HBV inhibition (Example 4); type: in vivo, C57BL/6 mouse; details: for inhibition of HBeAg production (plasma): day 28 of dosing (Day 59 after infection)
Excerpt: Adeno-associated virus/hepatitis B virus (AAV/HBV) is a recombinant AAV carrying replicable human HBV genome. Taking the advantage of the highly hepatotropic feature of genotype 8 AAV, the human HBV genome can be efficiently delivered to mouse liver cells. Infection of immune competent mice with AAV/HBV can result in long term HBV viremia, including release of human HBV virions, HBsAg and HBeAg into the blood, which mimics chronic HBV infection in patients. The AAV/HBV model can be used to evaluate the in vivo activity of various types of anti-HBV agents. Furthermore, this is an appropriate model for evaluation of immune modulators (see, for example Huang et al., Int. J. Onc. v39 pp1511-1519, 2011).
rAAV8-1.3HBV, genotype D, was purchased from Beijing FivePlus Molecular Medicine Institute (batch number A2018092406). The stock virus of 1×10^12 viral genome (v.g.)/mL was diluted to 5×10^11 v.g./mL with sterile phosphate-buffered saline (PBS) and 1×10^11 v.g. AAV/HBV in 200 μL was injected per 5 week old male C57BL/6 mouse 31 days prior to the initiation of dosing (day −31).
Blood samples (˜100 μL) were collected into K2-EDTA coated tubes via submandibular bleeding on days −17, −7 and −4. The samples were centrifuged at 7,000 g (4° C.) for 10 minutes for plasma collection. At least 40 μL plasma samples were prepared to determine the level of HBV-DNA by qPCR, and the levels of HBs Antigen (HBsAg) and HBe Antigen (HBeAg) by enzyme-linked immunosorbent assay (ELISA). Remaining plasma samples were stored at −80° C. for post-life assays. Based on the plasma levels of HBV DNA, HBsAg, HBeAg and body weights on days −17, −7 and −4, mice with qualified viral infection levels were selected and randomly divided into 7 groups with 5 mice in each group on day −1. All mice were evenly distributed in each group, to ensure no significant difference existed between each group in terms of HBV DNA, HBsAg, HBeAg level and body weight on day −4.
Animal groups were untreated, treated with Entecavir (ETV) at 0.005 mg/kg orally (p.o.) daily on days 0-34, Decoy at 2×10^8 killed bacteria per mouse administered tail vein i.v. on days 1, 2, 8, 9, 15, 16, 22, 23, 29 and 30, or ETV and Decoy. Plasma samples were obtained weekly an analyzed for HBV-DNA, HBsAg and HBeAg as described above.

[2] = tested on: AAV/HBV (human HBV genome, genotype D); assay: AAV/HBV mouse model, long-term HBV inhibition with indomethacin (Example 5); type: in vivo, C57BL/6 mouse; details: for inhibition of HBV DNA production (plasma): all groups given indomethacin 10 μg/mL in drinking water, ETV 0.1 mg/kg
Experimental: This experiment was conducted in order to determine if a non-steroidal anti-inflammatory drug (NSAID) could enhance anti-viral activity by Decoy bacteria, if the anti-viral activity of Decoy is lost after cessation of treatment, and the potential toxic effects of ETV, Decoy and ETV+Decoy treatment. The experiment was carried out as described in Example 4, except that the AAV/HBV virus was injected at day −29, relative to start of dosing. HBV-DNA, HBsAg and HBeAg levels in plasma were determined on days −15, −8 and −1, relative to start of dosing on day 0, and the ETV dose was increased to 0.1 mg/kg. In addition, all groups represented in FIGS. 3, 4, 5 and 6 were administered indomethacin (NSAID) daily (10 μg/mL in drinking water). Dosing was carried out for 5 weeks as in Example 4, with plasma levels of HBV-DNA, HBsAg and HBeAg determined weekly, as well as every other week for 27 weeks after cessation of treatment. Inhibitory activity was determined by comparing treated groups at each time point to the control (indomethacin alone) group at the same time-point by unpaired, non-parametric Mann-Whitney statistical analysis.
Upon termination, the liver from each mouse was divided into multiple sections, snap frozen in liquid nitrogen immediately upon collection and stored at −80° C. Liver sections were used for HBV DNA detection and additional sections from each mouse liver were fixed in 10% neutral buffered formalin (NB F) for about 24 hours, then transferred for routine dehydration and paraffin embedding. Paraffin blocks were sectioned for hematoxylin-eosin (H&E) staining and pathology analysis, as well immunohistochemistry (IHC) analysis for HBsAg and HBcAg.

[3] = tested on: human peripheral blood mononuclear cells (PBMCs); assay: Induction of cytokine secretion from human PBMCs in vitro (Luminex); type: cell-based; details: full titration peak mean
Experimental: Supernatants were harvested by centrifuging plates at 1,000 rpm for 10 minutes and stored at −80° C. Luminex analysis of cytokine levels was carried out with Millipore Human Cytokine/Chemokine Magnetic Bead panels HCYTOMAG-60K and HSTCMAG-28SK. Levels of cytokines were interpolated off a standard curve using a […] non-linear regression analysis where the fit=(A+((B−A)/(1+(((B−E)/(E−A))*((x/C)^D))))). The interpolated data was normalized to vehicle control or unstimulated control and analyzed. PBMCs from fresh normal peripheral blood leukapheresis paks (ALLCells, Alameda, CA) were isolated using a Ficoll gradient (Ficoll-Paque PLUS, Cat #17-144-02, density 1.077+/−0.001 g/mL from GE Healthcare Bio-Sciences, Pittsburgh, PA). The bacteria vehicle was phosphate-buffered saline (PBS) with no calcium and 2 mM MgCl2.
The experiment was carried out as described for Table 1.

Row | Compound | time to significant inhibition of HBV DNA production after initiation of dosing ([1]; ETV 0.005 mg/kg p.o. daily) | mice with plasma HBV DNA down to the lower limit of quantitation (120 copies/μL plasma) ([1]; by day 28 of dosing (day 59 after infection)) | inhibition of HBeAg production (plasma) ([1]; without indomethacin) | inhibition of HBeAg production (plasma) ([1]; without indomethacin, listed as Entecavir) | inhibition of HBV DNA production (plasma) ([1]; vs no treatment group, ETV 0.005 mg/kg p.o. daily, Decoy 2×10^8 killed bacteria i.v. twice weekly) | inhibition of HBsAg production (plasma) ([1]; without indomethacin) | inhibition of HBV DNA at termination (day 253) ([2]; 27 weeks after cessation of treatment, in the presence of indomethacin) | inhibition of HBeAg expression in mouse livers ([2]; 27 weeks after the cessation of treatment, in the presence of indomethacin) | body weight loss ([2]; ETV treatment 0.1 mg/kg, with indomethacin) | inhibition of HBV DNA production (plasma) [2] | GM-CSF induction [3] | IFNγ induction [3] | IL-1β induction [3] | IL-6 induction [3] | IL-8 induction [3] | IL-10 induction [3] | IL-12p70 induction [3] | TNFα induction [3]
1 | C=C1[C@H](CO)[C@@H](O)C[C@@H]1n1cnc2c(=O)[nH]c(N)nc21 [ETV, Entecavir] | ≤ 3 days | 5/5 | No inhibition | not | significantly inhibited | No inhibition | Statistically significant inhibition of HBV DNA was lost | not | No body weight loss | inhibited | – | – | – | – | – | – | – | –
2 | COc1ccc2c(c1)c(CC(=O)O)c(C)n2C(=O)c1ccc(Cl)cc1 [indomethacin] | – | – | – | – | – | – | – | – | – | did not inhibit | – | – | – | – | – | – | – | –
3 | CpG ODN 2006 | – | – | – | – | – | – | – | – | – | – | 0 pg/mL | 7 pg/mL | 1 pg/mL | 241 pg/mL | 2,436 pg/mL | 374 pg/mL | 4 pg/mL | 51 pg/mL
4 | Poly(I:C) | – | – | – | – | – | – | – | – | – | – | 0 pg/mL | 103 pg/mL | 22 pg/mL | 129 pg/mL | 1,452 pg/mL | 8 pg/mL | 18 pg/mL | 208 pg/mL
